pIC50: −log10 of the molar value. Where a name gives a salt, the structure may show the parent alone. Read-outs that look alike come from different tables or passages of the source.
Tests used:
Type IV PDE = assay: PDE IV inhibition: hydrolysis of [3H]-cyclic AMP by isolated Type IV PDE; type: biochemical, bovine
Protocol: The Type IV PDE is isolated from bovine tracheal smooth muscle using a procedure similar to that previously described by Silver, P. J., Hamel, L. T., Perrone, M. H. Bentley, R. G. Bushover, C. R., Evans, D. B.: Eur. J. Pharmacol. 150:85,1988.(1). Briefly, smooth muscle from bovine trachea is minced and homogenized using a polytron in 10 volumes of an extraction buffer containinhg 10 mM Tris-acetate (pH 7.5), 2 mM magnesium chloride, 1 mM dithiothreitol and 2,000 units/ml of aprotinin. This and all subsequent procedures are performed at 0-4° C. The homogenate is sonicated and then centrifiged at 48,000×g for 30 minutes. The resulting supernatant is applied to a DEAE Trisacryl M column previously equilibrated with sodium acetate and dithiothreitol. After applications of the sample, the column is washed with sodium acetate/dithiothreitol, after which the different forms of PDE are eluted from the column using a linear Tris-HCl/NaCl gradient. Fractions containing Type IV PDE are collected, dialyzed and concentrated to 14% of the original volume. The concentrated fractions are diluted to 50% with ethylene glycol and stored at -20° C.
Enzyme activity is assessed by measuring the hydrolysis of [^3H]-cyclic AMP, as described by Thompson, W. J., Teraski, W. L., Epstein, P. N., Strada, S. J.: Adv. Cyclic Nucleotide Res. 10:69, 1979. The cyclic AMP concentration used in this assay is 0.2 μM, which approximates the Km value. Protein concentration is adjusted to ensure that no more than 15% of the available substrate is hydrolyzed during the incubation period.
All test compounds are dissolved in dimethyl sulfoxide (final concentration of 2.5%). This concentration of dimethyl sulfoxide inhibits enzyme activity by approximately 10%.

[1] = tested on: ovalbumin-sensitized guinea pigs (eosinophils in BAL); assay: Ovalbumin sensitization and challenge in guinea pigs, differential cell counts in bronchoalveolar lavage; type: in vivo, guinea pig; conditions: 5 mg/kg ip one hour prior to ovalbumin challenge; for % Eosinophils in BAL x ± se: BAL 24 hours after aerosol exposure; for % Inhibition: eosinophils in BAL versus vehicle
Protocol: (i) The effect of test compounds in a model of bronchial hyperresponsiveness (BHR) and cellular infiltration in the guinea pig induced by ovalbumin (see, for example Morley et al, Agents and Actions, Supplement, 1988, 23, 187) were studied.
(ii) Sensitization and Challenge procedure: Male Dunkin Hartley guine pigs (Charles River) (200-250 g) were injected i.p. with ovalbumin (OVA) (0.5 ml/animal; 20 μg OVA in AlOH)3 (moist gel)); this preparation produced an injectable stable suspension containing excess Al(OH)3. Sham animals were injected with 0.5 ml Al(OH)3 alone. After a period of 18-21 days animals were exposed to an aerosol of OVA (100 μg/ml) for 1 hour in an exposure chamber.
(iii) Bronchoalveloar lavage: Animals were anaesthetized, 24 hours after aerosol exposure, with urethane (25%, w/v, 7 ml/kg, i.p.) and the trachea cannulated. Bronchoalveo-lar lavage (BAL) was performed by instilling 5 ml sterile saline into the lungs via the tracheal cannula and the fluid was immediately removed. The fluid was reinjected and the procedure repeated 5 times in total. […] Total cell counts were perfomed on the resultant BAL fluid using an improved Neubauer haemocytometer. Cytospin preparations were prepared using a Shandon Cytospin 2 centrifuge. Two drops of BAL fluid were added to each cytospin cup and the samples were centrifuged for 1 min at 1300 r.p.m. Slides were fixed in acetone and stained with haemotoxylin and carbol chromotrope according to the method described by Lendrum (Lendrum 1944), differential cell counts were performed on each slide by counting 200 cells at random, the cell types were classified as neutrophils, eosinophils and mononuclear cells according to standard morphological criteria. Cells were counted blind. The results are expressed as the number of neutrophils, eosinophils and mononuclear cells per ml of BAL fluid. The remaining BAL fluid was centrifuged (10 min., 1000 g) and the resultant cells and cell free supernatants were aliquotted and frozen for later assays. Compounds were solu-bilized in either DMSO or saline administered intraperitoreally at a dose of 5 mg/kg one hour prior to ovalbumin challenge.

[2] = tested on: Guinea pig isolated trachealis muscle; assay: Isolated guinea pig trachea: relaxation of airways muscle; type: cell-based; conditions: compared with theophylline as standard (= 1); cumulative concentration effect curves
Protocol: The test compound was dissolved in dimethylsulfoxide. Guinea pig isolated trachealis muscle was mounted in a bath containing Krebs solution maintained at 37.5° C. and bubbled with carbogen (95% 02, 5% CO2).
Tension changes were recorded isometrically using force displacement transducers in conjunction with potentiometric pen recorders.
The ability of the test compounds to relax airways muscle was investigated by the construction of cumulative concentration effect curves. Each concentration of the test compound was allowed to equilibrate with the tissue for 5 minutes before a concentration increment (ten-fold) was made.
In each tissue the test compound was compared with theophylline as standard.

[3] = adenines, Table 4, cyclic AMP 0.2 μM, read-out: calc PDE IV IC50
[4] = dithioxanthines, Table 5, read-out: IC50 PDE IV
[5] = adenines, Table 7, read-out: calc PDE IV IC50

In the case of `COc1ccc(Cn2cnc(N)c3nc(C(C)(C)OCc4ccc(F)cc4)nc2-3)cc1OC` (as salt: hydrochloride) [6-Amino-3-(3,4-dimethoxybenzyl)-8-(1-(4-fluorobenzyloxy-1-methyl-ethyl)-3H-purine Hydrochloride], the melting point was 172 to 175 °C.

In the case of `CCNc1ncn(Cc2ccc(OC)c(OC3CCCC3)c2)c2nc(C(C)C)nc1-2.Cl` [3-(3-Cyclopentyloxy-4-methoxybenzyl)-6-ethylamino-8-isopropyl-3H-purine Hydrochloride], the pIC50 (Type IV PDE; read-out: PDE IV I50) was 6.49, the “% Eosinophils in BAL x ± se” value [1] was 12 ± 2% and the “% Inhibition” value [1] was 64%.

Compound `CCNc1ncn(Cc2ccc(Cl)cc2)c2ncnc1-2.Cl` [3-(4-chlorobenzyl)-6-ethylamino-3H-purine hydrochloride] has a pIC50 (Type IV PDE; [3]) of 4.42 and a melting point of 251 to 254 °C.

With `COc1ccc(Cn2c(=S)[nH]c(=S)c3[nH]c(C(C)C)nc32)cc1OC1CCCC1` [3-(3-cyclopentyloxy-4-methoxybenzyl)-3,7-dihydro-8-isopropyl-2,6-dithio-1H-purine-2,6-dione] the pIC50 (Type IV PDE; [4]) was 6.22, the pIC50 (Type IV PDE; read-out: PDE IV I50) was 6.10 and the “% Eosinophils in BAL x ± se” value [1] was 17 ± 3%. For the same compound, the “% Inhibition” value [1] was 47%.

`CCNc1ncn(Cc2ccc(Cl)cc2)c2nc(C(C)C)nc1-2` [3-(4-chlorobenzyl)-6-ethylamino-8-isopropyl-3H-purine] showed a pIC50 (Type IV PDE; read-out: PDE IV I50) of 5.95 and a melting point of 215 to 217 °C.

With `COc1ccc(Cn2cnc(N)c3nc(C(C)(C)OCc4ccc(F)cc4)nc2-3)cc1OC1CCCC1.Cl` [6-Amino-3-(3-cyclopentyloxy-4-methoxy-benzyl)-8-(1-(4-fluorobenzyloxy)-1-methyl-ethyl)-3H-purine hydrochloride] the pIC50 (Type IV PDE; [5]) was 7.47 and the melting point was 165 to 174 °C.

For `CCCCCCn1cnc(NCC)c2ncnc1-2` [6-Ethylamino-3-hexyl-3H-purine], the “In Vitro Activity” value [2] was 25.6.

With `CCNc1ncn(Cc2ccc(OC)c(OC3CCCC3)c2)c2nc(C(C)(C)OCc3ccccc3)nc1-2.Cl` [8-(1-Benzyloxy-1-methyl-ethyl)-3-(3-cyclopentyloxy-4-methoxy-benzyl)-6-ethylamino-3H-purine Hydrochloride] the pIC50 (Type IV PDE; [5]) was 6.07 and the melting point was 148 to 150 °C.

Compound `COc1ccc(Cn2cnc(N)c3nc(C(C)(C)OCc4ccccc4)nc2-3)cc1OC1CCCC1.Cl` [6-Amino-8-(1-benzyloxy-1-methyl-ethyl)-3-(3-cyclopentyloxy-4-methoxy-benzyl)-3H-purine Hydrochloride] has a pIC50 (Type IV PDE; [5]) of 8.30 and a melting point of 201 to 203 °C.

In the case of `CCNc1ncn(CCC(C)C)c2nc(C3CC3)nc1-2.Cl` [8-cyclopropyl-6-ethylamino-3-(3-methylbutyl)-3H-purine hydrochloride], the pIC50 (Type IV PDE; [3]) was 5.61, the “% Eosinophils in BAL x ± se” value [1] was 16 ± 4% and the “% Inhibition” value [1] was 52%.

In the case of `CCNc1ncn(Cc2ccccc2)c2ncnc1-2` [3-Benzyl-6-ethylamino-3H-purine], the “In Vitro Activity” value [2] was 18.5 and the melting point was 187 to 188 °C.

Work on `CCCn1c(=S)nc(NCCO)c2[nH]c(C3CC3)nc21` [8-cyclopropyl-3,7-dihydro-6-(2-hydroxyethylamino)-3-propyl-2-thio-2H-purin-2-one] yielded a pIC50 (Type IV PDE; read-out: PDE IV I50) of 5.35 and a pIC50 (Type IV PDE; thioisoguanines, Table 2, cyclic AMP 0.2 μM, read-out: Calc IC50 PDE IV) of 4.27.

For `CCCCn1c(=S)[nH]c(=S)c2[nH]c(C3CC3)nc21` [3-butyl-8-cyclopropyl-3,7-dihydro-2,6-dithio-1H-purine-2,6-dione], the pIC50 (Type IV PDE; [4]) was 5.03.

With `CCNc1ncn(Cc2ccc(OC)c(OC3CN4CCC3CC4)c2)c2nc(C(C)C)nc1-2` (centres unmarked) [6-Ethylamino-3-[3-(2,2,2)-azabicyclooctan-3-yloxy)-4-methoxy]-8-isopropyl-3H-purine] the pIC50 (Type IV PDE; [5]) was 5.69.

In the case of `COc1ccc(Cn2cnc(N)c3nc(C(C)(C)OCc4ccccc4)nc2-3)cc1OC` [6-Amino-8-(1-benzyloxy-1-methyl-ethyl)-3-(34-dimethoxybenzyl)-3H-purine Hydrochloride], the pIC50 (Type IV PDE; [5]) was 6.03.

With `CCNc1ncn(Cc2cc[n+]([O-])cc2)c2nc(C(C)C)nc1-2` [6-Ethylamino-3-(1-oxopyridin-4-yl-methyl)-8-isopropyl-3H-purine] the pIC50 (Type IV PDE; [5]) was 3.41.

With `COc1ccc(Cn2cncc3nc(C(C)(C)O)nc2-3)cc1OC1CCC(O)C1` (centres unmarked) [3-[3-(3-Hydroxy-cyclopentyloxy)-4-methoxy-benzyl]-8-(1-hydroxy-1-methyl-ethyl)-3H-purine] the pIC50 (Type IV PDE; [5]) was 5.65.

With `CCNc1ncn(Cc2cccc(Cl)c2)c2nc(C(C)C)nc1-2` [3-(3-chlorobenzyl)-6-ethylamino-8-isopropyl-3H-purine] the pIC50 (Type IV PDE; [5]) was 5.67.

`CC(C)c1nc2c(N)ncn(CC3CCCC3)c-2n1` [6-amino-3-cyclopentylmethyl-8-isopropyl-3H-purine] gave a pIC50 (Type IV PDE; [5]) of 4.63.

Work on `CCn1c(=S)[nH]c(=S)c2[nH]c(C3CC3)nc21` [8-cyclopropyl-3,7-dihydro-3-ethyl-2,6-dithio-1H-purine-2,6-dione] yielded a pIC50 (Type IV PDE; [4]) of 5.21.

For `COc1ccc(Cn2cnc(N)c3nc(C(C)(C)OCc4ccc(F)cc4)nc2-3)cc1OC` [6-Amino-3-(3,4-dimethoxybenzyl)-8-(1-(4-fluorobenzyloxy-1-methyl-ethyl)-3H-purine Hydrochloride], the pIC50 (Type IV PDE; [5]) was 5.73.

For `CCNc1ncn(Cc2ccc(OC)c(OCc3ccccc3)c2)c2nc(C(C)C)nc1-2` [3-(3-benzyloxy-4-methoxy-benzyl)-6-ethylamino-8-isopropyl-3H-purine], the pIC50 (Type IV PDE; [5]) was 5.89.

In the case of `CCCCCCn1cnc(NCC)c2ncnc1-2` (as salt: hydrochloride) [6-Ethylamino-3-hexyl-3H-purine], the melting point was 190 to 195 °C.

`CCNc1ncn(Cc2ccc(OC)c(OCc3ccncc3)c2)c2nc(C(C)C)nc1-2` [6-Ethylamino-8-isopropyl-3-[3-(pyridin-4-yl-methoxy)-4-methoxy-benzyl]-3H-purine] showed a pIC50 (Type IV PDE; [5]) of 4.61.

With `CCNc1ncn(CC2CCCCC2)c2nc(C3CC3)nc1-2` [3-cyclohexylmethyl-8-cyclopropyl-6-ethylamino-3H-purine hydrochloride] the pIC50 (Type IV PDE; [3]) was 5.42.

Work on `CCNc1ncn(-c2ccc(Cl)cc2)c2nc(C(C)C)nc1-2` [3-(4-chlorophenyl)-6-ethylamino-8-isopropyl-3H-purine] yielded a pIC50 (Type IV PDE; [5]) of 5.19.

With `CCNc1ncn(CC)c2nc(C3CC3)nc1-2` [8-Cyclopropyl-3-ethyl-6-ethylamino-3H-purine] the “In Vitro Activity” value [2] was 43.7 and the pIC50 (Type IV PDE; [5]) was 4.57.

`S=c1[nH]c(=S)n(CC2CC2)c2nc(C3CC3)[nH]c12` [8-cyclopropyl-3-cyclopropylmethyl-3,7-dihydro-2,6-dithio-1H-purine-2,6-dione] gave a pIC50 (Type IV PDE; [4]) of 5.64.

With `Cn1c(=O)c2[nH]cnc2n(C)c1=O` [Theophylline, reference compound] the “In Vitro Activity” value [2] was 1.

— patent US6413975B1, “Purine derivatives having phosphodiesterase iv inhibition activity” (Euro-Celtique, S.A., priority 1999, dated 2002)
